# Measured values: patent publication US7056903B2, “Carboxylic acid derivatives as IP antagonists” (Syntex (U.S.A.) LLC, priority 2000, dated 2006)
# Values joined by “and” are separate entries in the source; they are usually repeats but may differ in a detail not shown here. Identical values can stand only once. Counter-ions that a name gives are not always drawn.
row,SMILES,melting point
1,"O=C(N[C@H](Cc1ccccc1)C(=O)O)OCc1nc2cc(-c3ccccc3)ccc2o1 (as salt: ammonium) [Compound 53, (R)-3-phenyl-2-(5-phenyl-benzoxazol-2-ylmethoxycarbonylamino) propionic acid]",150.9 to 152.7 °C
2,"O=C(N[C@H](Cc1ccccc1)C(=O)O)OCC1Cc2cc(-c3ccccc3)ccc2O1 (stereo partly drawn) (as salt: salt) [Compound 68, (R)-3-Phenyl-2-(5-phenyl-2,3-dihydro-benzofuran-2-ylmethoxycarbonylamino)-propionic acid]",176.3 to 182 °C
3,"O=C(N[C@H](Cc1ccccc1)C(=O)O)OCc1cc2cc(-c3cccc4[nH]ccc34)ccc2o1 (as salt: salt) [Compound 137, (R)-2-[5-(1H-indol-4-yl)-benzofuran-2-ylmethoxycarbonylamino]-3-phenyl-propionic acid]",100 to 106 °C
4,"O=C(N[C@H](Cc1ccccc1)C(=O)O)OCc1cc2cc(-c3ccc(F)cc3)ccc2o1 (hydrate or solvate) [Compound 91, (R)-2-[5-(4-fluoro-phenyl)-benzofuran-2-ylmethoxycarbonylamino]-3-phenyl-propionic acid]",129.5 to 131.5 °C
5,"COc1ccc(-c2ccc3oc(COC(=O)N[C@H](Cc4ccccc4)C(=O)O)cc3c2)cc1 (hydrate or solvate) [Compound 92, (R)-2-[5-(4-methoxy-phenyl)-benzofuran-2-ylmethoxycarbonylamino]-3-phenyl-propionic acid]",132 to 156.1 °C
6,"O=C(N[C@H](Cc1ccccc1)C(=O)O)OCc1cc2cc(-c3ccc(Cl)cc3)ccc2o1 (hydrate or solvate) [Compound 94, (R)-2-[5-(4-chloro-phenyl)-benzofuran-2-ylmethoxycarbonylamino]-3-phenyl-propionic acid]",129.5 to 144 °C
7,"Cc1ccc(-c2ccc3oc(COC(=O)N[C@H](Cc4ccccc4)C(=O)O)cc3c2)cc1 (hydrate or solvate) [Compound 95, (R)-2-[5-(4-methyl-phenyl)-benzofuran-2-ylmethoxycarbonylamino]-3-phenyl-propionic acid]",151 to 154 °C
8,"N#Cc1cccc(-c2ccc3oc(COC(=O)N[C@H](Cc4ccccc4)C(=O)O)cc3c2)c1 (hydrate or solvate) [Compound 96, (R)-2-[5-(3-cyano-phenyl)-benzofuran-2-ylmethoxycarbonylamino]-3-phenyl-propionic acid]",64 to 68.5 °C
9,"O=C(N[C@H](Cc1ccccc1)C(=O)O)OCc1cc2cc(-c3ccc4c(c3)OCO4)ccc2o1 (hydrate or solvate) [Compound 97, (R)-2-(5-benzo[1,3]dioxol-5-yl-benzofuran-2-ylmethoxycarbonylamino)-3-phenyl-propionic acid]",125 to 131 °C
10,"O=C(N[C@H](Cc1ccccc1)C(=O)O)OCc1cc2cc(-c3ccccc3F)ccc2o1 (hydrate or solvate) [Compound 98, (R)-2-[5-(2-fluoro-phenyl)-benzofuran-2-ylmethoxycarbonylamino]-3-phenyl-propionic acid]",97.1 to 100.8 °C
11,"O=C(N[C@H](Cc1ccc(F)cc1)C(=O)O)OCc1cc2cc(-c3ccccc3)ccc2o1 (hydrate or solvate) [Compound 105, (R)-3-(4-fluoro-phenyl)-2-(5-phenylbenzofuran-2-ylmethoxycarbonylamino)-propionic acid]",131.5 to 135 °C
12,"O=C(N[C@H](Cc1ccc(F)cc1)C(=O)O)OCc1cc2cc(-c3ccc(F)cc3)ccc2o1 (hydrate or solvate) [Compound 111, (R)-3-(4-fluoro-phenyl)-2-[5-(4-fluorophenyl)-benzofuran-2-ylmethoxycarbonylamino]-propionic acid]",158 to 162 °C
13,"N#Cc1cccc(-c2ccc3oc(COC(=O)N[C@H](Cc4ccc(F)cc4)C(=O)O)cc3c2)c1 (hydrate or solvate) [Compound 112, (R)-2-[5-(3-cyano-phenyl)-benzofuran-2-ylmethoxycarbonylamino]-3-(4-fluoro-phenyl)-propionic acid]",84 to 87.5 °C
14,"O=C(N[C@H](Cc1ccc(F)cc1)C(=O)O)OCc1cc2cc(-c3cccnc3)ccc2o1 (hydrate or solvate) [Compound 125, (R)-3-(4-fluoro-phenyl)-2-(5-pyridin-3-yl-benzofuran-2-ylmethoxycarbonylamino)-propionic acid]",176.9 to 178.4 °C
15,"COc1cccc(OCc2ccc(COC(=O)NC(Cc3ccccc3)C(=O)O)cc2)c1 (stereo not drawn) (hydrate or solvate) [Compound 154, 2-[4-(3-methoxy-phenoxymethyl)-benzyloxycarbonylamino]-3-phenyl-propionic acid]",62.5 to 64.8 °C
16,"O=C(N[C@H](Cc1ccccc1)C(=O)O)OCc1ccc(COc2ccccc2)cc1 [Compound 7, (R)-2-(4-Phenoxymethyl-benzyloxycarbonylamino)-3-phenyl-propionic acid]",115.9 to 116.7 °C
17,"O=C(N[C@H](Cc1ccccc1)C(=O)O)OCc1cc2cc(-c3ccccc3)ccc2o1 [Compound 19, (R)-2-(5-Phenyl-benzofuran-2-ylmethoxycarbonylamino)-3-phenyl-propionic acid]",154 to 156 °C
18,"O=C(N[C@H](Cc1ccccc1)C(=O)O)OCc1ccc2oc(-c3ccccc3)cc2c1 [Compound 29, (R)-3-Phenyl-2-(2-phenyl-benzofuran-5-ylmethoxycarbonylamino)-propionic acid]",172.8 to 173.5 °C

row,SMILES,melting point
1,"O=C(NC(Cc1ccccc1)C(=O)O)OCc1ccc(COc2cccc3[nH]ccc23)cc1 (stereo not drawn) [Compound 41, 2-[4-(1H-indol-4-yloxymethyl)-benzyloxycarbonylamino]-3-phenyl-propionic acid]",106.8 to 108.2 °C and 105.9 to 108.5 °C
2,"O=C(NC(Cc1ccccc1)C(=O)O)OCc1ccc(CCOc2ccccc2)cc1 (stereo not drawn) [Compound 73, 2-[4-(2-Phenoxy-ethyl)-benzyloxycarbonylamino]-3-phenyl-propionic acid]",150.2 to 152.4 °C
3,"COc1ccccc1OCc1ccc(COC(=O)NC(Cc2ccccc2)C(=O)O)cc1 (stereo not drawn) [Compound 74, 2-[4-(2-methoxy-phenoxymethyl)-benzyloxycarbonylamino]-3-phenyl propionic acid]",92.6 to 93.5 °C
4,"O=C(NC(Cc1ccccc1)C(=O)O)OCc1ccc(COc2ccccc2F)cc1 (stereo not drawn) [Compound 75, 2-[4-(2-fluoro-phenoxymethyl)-benzyloxycarbonylamino]-3-phenyl-propionic acid]",114 to 117 °C
5,"O=C(NC(Cc1ccccc1)C(=O)O)OCc1ccc(COc2cccc(F)c2)cc1 (stereo not drawn) [Compound 76, 2-[4-(3-fluoro-phenoxymethyl)-benzyloxycarbonylamino]-3-phenyl-propionic acid]",107.9 to 110 °C
6,"CS(=O)(=O)Nc1cccc(OCc2ccc(COC(=O)N[C@H](Cc3ccccc3)C(=O)O)cc2)c1 [Compound 77, (R)-2-[4-(3-methanesulfonylamino-phenoxymethyl)-benzyloxycarbonylamino]-3-phenyl-propionic acid]",161.9 to 164.9 °C
7,"O=C(N[C@H](Cc1ccccc1)C(=O)O)OCc1ccc(COc2cccc(NS(=O)(=O)c3ccccc3)c2)cc1 [Compound 78, (R)-2-[4-(3-benzenesulfonylamino-phenoxymethyl)-benzyloxycarbonylamino]-3-phenyl-propionic acid]",96.6 to 98.6 °C
8,"CC(=O)Nc1cccc(OCc2ccc(COC(=O)N[C@H](Cc3ccccc3)C(=O)O)cc2)c1 [Compound 79, (R)-2-[4-(3-acetylamino-phenoxymethyl)-benzyloxycarbonylamino]-3-phenyl-propionic acid]",190.3 to 193.5 °C
9,"O=C(N[C@H](Cc1ccccc1)C(=O)O)OCc1ccc(COc2cccc([N+](=O)[O-])c2)cc1 [Compound 80, (R)-2-[4-(3-nitro-phenoxymethyl)-benzyloxycarbonylamino]-3-phenyl-propionic acid]",160.8 to 161.7 °C
10,"O=C(N[C@H](Cc1ccccc1)C(=O)O)OCc1ccc(COc2cccc(NC(=O)c3ccccc3)c2)cc1 [Compound 81, (R)-3-phenyl-2-(4-{3-[(1-phenyl-methanoyl)-amino]-phenoxymethyl}-benzyloxycarbonylamino)-propionic acid]",161.9 to 163.7 °C
11,"O=C(NC(Cc1ccccc1)C(=O)O)OCc1ccc(COc2ccccc2)c(F)c1 (stereo not drawn) [Compound 82, 2-(3-fluoro-4-phenoxymethyl-benzyloxycarbonylamino)-3-phenyl-propionic acid]",104.2 to 104.7 °C
12,"O=C(NC(Cc1cccc(NS(=O)(=O)c2ccccc2)c1)C(=O)O)OCc1ccc(COc2ccccc2)cc1 (stereo not drawn) [Compound 83, 3-(3-benzenesulfonylamino-phenyl)-2-(4-phenoxymethyl-benzyloxycarbonylamino)-propionic acid]",129.7 to 130.3 °C
13,"O=C(Cc1ccc(OCc2ccccc2)cc1)NC(Cc1ccccc1)C(=O)O (stereo not drawn) [Compound 84, 2-(4-benzyloxybenzylcarbonylamino)-3-phenyl-propionic acid]",118.3 to 119.9 °C
14,"O=C(NC(Cc1ccccc1)C(=O)O)OCc1ccc(OCc2ccc(F)cc2)cc1 (stereo not drawn) [Compound 85, 2-[4-(4-fluoro-benzyloxy)-benzyloxycarbonylamino]-3-phenyl-propionic acid]",134 to 138 °C
15,"O=C(NC(Cc1ccccc1)C(=O)O)OCc1ccc(OCCc2ccccc2)cc1 (stereo not drawn) [Compound 86, 2-(4-phenethyloxy-benzyloxycarbonylamino)-3-phenyl-propionic acid]",96.9 to 97.4 °C
16,"O=C(N[C@H](Cc1ccccc1)C(=O)O)OCc1ccc(OCCCc2ccccc2)cc1 [Compound 87, (R)-3-phenyl-2-[4-(3-phenyl-propoxy)-benzyloxycarbonylamino]-propionic acid]",105.6 to 106.5 °C
17,"O=C(O)C(Cc1ccccc1)NC(=O)C(O)c1ccc(OCc2cccc3[nH]ccc23)cc1 (stereo not drawn) [Compound 88, 2-{2-hydroxy-2-[4-(1H-indol-4-ylmethoxy)-phenyl]-ethanoylamino}-3-phenyl-propionic acid]",178 to 181 °C
18,"O=C(N[C@H](Cc1ccccc1)C(=O)O)OCc1ccc(OCCOc2ccccc2)cc1 [Compound 89, (R)-2-[4-(2-phenoxy-ethoxy)-benzyloxycarbonylamino]-3-phenyl-propionic acid]",130 to 131.3 °C
